{"source": "patent US20200087625A1", "about": "“METHODS FOR ISOLATING, EXPANDING AND ADMINISTERING CANCER SPECIFIC CD8+ T CELLS” (priority 2017, published 2020)", "key": {"[1]": {"system": "CD8+ T cells", "assay": "CD8+ T cell activation (mLN flow cytometry) and lung histology in IV metastasis model", "assay_type": "in vivo, BALB/c mice", "settings": "day 21, vs vehicle", "protocol": "FIGS. 23A-23G. Systemic administration of […] induces tumor-specific CD8^+ T cells. (A) Protocol of IV metastasis model. (B) BALB/c mice (n=B-15/group) were i.v. injected with 4T1 cells (2×10^4) on day 0.1V270 (2, 20, or 200 μg/injection) was i.p. administered on days −1, 7, 10, and 14. The numbers of lung nodules were counted on day 21. (C) 200 μg/injection 1V270 was i.p. administered on days −1 or 0 followed by days 7, 10, and 14 where indicated. The numbers of lung nodules were counted on day 21. Each dot indicates an individual mouse and horizontal and vertical bars indicate means±SEM. *P<0.05, **P<0.01 Kruskal-Wallis test with Dunn's post hoc test comparing treatment groups against vehicle group. (D-G) BALB/c mice (n=10/group) were treated with 1V270 (200 μg/injection) on day-1 and 4T1 cells were inoculated on day 0. (D,E) Three weeks later, mLNs cells were stained for CD3 and CD8. Intracellular granzyme B (D) and IFNγ (E) were analyzed by flow cytometry. Data are representative of 2 independent experiments showing similar results. *P<0.05, by the Mann-Whitney U test comparing the 1V270 treatment groups against the vehicle treated group. (F) Histological analysis of lungs on day 21. Representative images of H&E staining and immunohistochemical staining for CD3 and CD45. Scale bar: 100 μm. Original magnification ×200. (G) Tumor-specific cytotoxicity was examined using 4T1 cells as target cells and BALB/3T3 cells as irrelevant target cells. […] The percent specific killing was calculated. Data were analyzed by two-way ANOVA using a Bonferroni post hoc test comparing treatment groups against vehicle group. *P<0.05. […]\nTo make the single cell suspensions, tumors were dissociated using the mouse tumor dissociation kit (MiltenyiBiotec, San Diego, Calif.) and the gentle MACSOcto Dissociator according to the manufacture's protocol. […] Total cell number was counted by the ViaCount assay (MilliporeSigma, Darmstadt, Germany). […]"}, "[2]": {"system": "CD8+ T cells", "assay": "TCR repertoire analysis of CD8+ T cells from TILs and spleens", "assay_type": "in vivo, BALB/c mice"}}}
{"smiles": "CCCCCCCCC=CCCCCCCCC(=O)OCC(COP(=O)(O)OCCNC(=O)c1ccc(Cn2c(=O)[nH]c3c(N)nc(OCCOC)nc32)cc1)OC(=O)CCCCCCCC=CCCCCCCCC", "note": "(stereo not shown) [1V270]", "values": [{"measurement": "infiltration of CD45+CD3+ cells in the pulmonary tumor microenvironment", "setting": "[1]; histology", "value": "higher infiltration"}, {"measurement": "percentage of IFNγ positive CD8+ T cells", "setting": "[1]; mLN, 1V270 200 μg day -1", "value": "Significantly higher percentages"}, {"measurement": "percentage of granzyme B positive CD8+ T cells", "setting": "[1]; mLN, 1V270 200 μg day -1", "value": "Significantly higher percentages"}, {"measurement": "BUB overlap index between TILs and splenocytes", "setting": "[2]; 1V270-treated tumor-exposed vs non-tumor exposed mice", "value": "significantly higher BUB indices"}, {"measurement": "number of shared clones in TILs", "setting": "[2]; 1V270 treated tumor-exposed group vs no-tumor exposed group", "value": "eight-fold higher"}, {"measurement": "TCRα clonotypes shared by 3 or more individuals", "setting": "[2]; non-tumor group", "value": 5}, {"measurement": "clonality of CD8+ T cells", "setting": "[2]; secondarily challenged tumors", "value": "increased clonality of CD8^+ T cells"}, {"measurement": "TCRα clonotypes shared by 3 or more individuals", "setting": "[2]; tumor-exposed group", "value": 31}, {"measurement": "TCRβ clonotypes shared by 3 or more individuals", "setting": "[2]; tumor-exposed group", "value": 11}, {"measurement": "frequency of shared clones", "setting": "[2]; tumor-exposed vs non-tumor exposed mice", "value": "significantly higher in tumor-exposed mice than in non-tumor exposed mice"}]}
